HELM strings list units from the 5' end as sugar, base in round brackets, then linkage (d deoxyribose, r ribose, m 2'-O-methyl, p phosphodiester). Strings are as the collection lists them; they lack the last nucleoside at the 3' end of the tested compound. [moe] = 2'-O-(2-methoxyethyl) (MOE); [sp] = phosphorothioate linkage; [m5C] = 5-methylcytosine
Molecular target: SMN2
Assay: mouse, dose not given
Conditions: ASO

Substance | 3 h FOB score
RNA1{[moe](A)[sp].[moe](G)[sp].[moe](A)[sp].[moe](T)[sp].[moe](T)[sp].[moe]([m5C])[sp].[moe](A)[sp].[moe]([m5C])[sp].[moe](T)[sp].[moe](T)[sp].[moe](T)[sp].[moe]([m5C])[sp].[moe](A)[sp].[moe](T)[sp].[moe](A)[sp].[moe](A)[sp].[moe](T)[sp].[moe](G)[sp].[moe]([m5C])}$$$$ (last 3' nucleoside missing) | 3.5 score 0-7
RNA1{[moe](A)[sp].[moe](T)[sp].[moe](T)[sp].[moe]([m5C])[sp].[moe](A)[sp].[moe]([m5C])[sp].[moe](T)[sp].[moe](T)[sp].[moe](T)[sp].[moe]([m5C])[sp].[moe](A)[sp].[moe](T)[sp].[moe](A)[sp].[moe](A)[sp].[moe](T)[sp].[moe](G)[sp].[moe]([m5C])[sp].[moe](T)[sp].[moe](G)}$$$$ (last 3' nucleoside missing) | 4 score 0-7
RNA1{[moe](A)[sp].[moe](T)[sp].[moe](T)[sp].[moe]([m5C])[sp].[moe](A)[sp].[moe]([m5C])[sp].[moe](T)[sp].[moe](T)[sp].[moe](T)[sp].[moe]([m5C])[sp].[moe](A)[sp].[moe](T)[sp].[moe](A)[sp].[moe](A)[sp].[moe](T)[sp].[moe](G)[sp].[moe]([m5C])[sp].[moe](T)}$$$$ (last 3' nucleoside missing) | 3.5 score 0-7
RNA1{[moe](A)[sp].[moe](T)[sp].[moe](T)[sp].[moe]([m5C])[sp].[moe](A)[sp].[moe]([m5C])[sp].[moe](T)[sp].[moe](T)[sp].[moe](T)[sp].[moe]([m5C])[sp].[moe](A)[sp].[moe](T)[sp].[moe](A)[sp].[moe](A)[sp].[moe](T)[sp].[moe](G)[sp].[moe]([m5C])p.[moe](T)[sp].[moe](G)}$$$$ (last 3' nucleoside missing) | 4 score 0-7
RNA1{[moe](A)[sp].[moe](T)[sp].[moe](T)[sp].[moe]([m5C])[sp].[moe](A)[sp].[moe]([m5C])[sp].[moe](T)[sp].[moe](T)[sp].[moe](T)[sp].[moe]([m5C])[sp].[moe](A)[sp].[moe](T)[sp].[moe](A)[sp].[moe](A)[sp].[moe](T)[sp].[moe](G)p.[moe]([m5C])p.[moe](T)[sp].[moe](G)}$$$$ (last 3' nucleoside missing) | 3 score 0-7
RNA1{[moe](A)[sp].[moe](T)[sp].[moe](T)[sp].[moe]([m5C])[sp].[moe](A)[sp].[moe]([m5C])[sp].[moe](T)[sp].[moe](T)[sp].[moe](T)[sp].[moe]([m5C])[sp].[moe](A)[sp].[moe](T)[sp].[moe](A)[sp].[moe](A)[sp].[moe](T)p.[moe](G)[sp].[moe]([m5C])p.[moe](T)[sp].[moe](G)}$$$$ (last 3' nucleoside missing) | 2 score 0-7
RNA1{[moe](A)[sp].[moe](T)[sp].[moe](T)[sp].[moe]([m5C])[sp].[moe](A)[sp].[moe]([m5C])[sp].[moe](T)[sp].[moe](T)[sp].[moe](T)[sp].[moe]([m5C])p.[moe](A)[sp].[moe](T)[sp].[moe](A)[sp].[moe](A)[sp].[moe](T)[sp].[moe](G)[sp].[moe]([m5C])[sp].[moe](T)[sp].[moe](G)}$$$$ (last 3' nucleoside missing) | 4 score 0-7
RNA1{[moe](A)[sp].[moe](T)[sp].[moe](T)[sp].[moe]([m5C])[sp].[moe](A)[sp].[moe]([m5C])[sp].[moe](T)[sp].[moe](T)[sp].[moe](T)[sp].[moe]([m5C])p.[moe](A)[sp].[moe](T)[sp].[moe](A)[sp].[moe](A)[sp].[moe](T)[sp].[moe](G)[sp].[moe]([m5C])p.[moe](T)[sp].[moe](G)}$$$$ (last 3' nucleoside missing) | 2.75 score 0-7
RNA1{[moe](A)[sp].[moe](T)[sp].[moe](T)[sp].[moe]([m5C])[sp].[moe](A)[sp].[moe]([m5C])[sp].[moe](T)[sp].[moe](T)[sp].[moe](T)p.[moe]([m5C])p.[moe](A)[sp].[moe](T)[sp].[moe](A)[sp].[moe](A)[sp].[moe](T)[sp].[moe](G)[sp].[moe]([m5C])[sp].[moe](T)[sp].[moe](G)}$$$$ (last 3' nucleoside missing) | 4 score 0-7
RNA1{[moe](A)[sp].[moe](T)p.[moe](T)[sp].[moe]([m5C])[sp].[moe](A)[sp].[moe]([m5C])[sp].[moe](T)[sp].[moe](T)[sp].[moe](T)[sp].[moe]([m5C])[sp].[moe](A)[sp].[moe](T)[sp].[moe](A)[sp].[moe](A)[sp].[moe](T)[sp].[moe](G)[sp].[moe]([m5C])[sp].[moe](T)[sp].[moe](G)}$$$$ (last 3' nucleoside missing) | 4 score 0-7
RNA1{[moe](A)[sp].[moe](T)p.[moe](T)[sp].[moe]([m5C])[sp].[moe](A)[sp].[moe]([m5C])[sp].[moe](T)[sp].[moe](T)[sp].[moe](T)[sp].[moe]([m5C])[sp].[moe](A)[sp].[moe](T)[sp].[moe](A)[sp].[moe](A)[sp].[moe](T)[sp].[moe](G)[sp].[moe]([m5C])p.[moe](T)[sp].[moe](G)}$$$$ (last 3' nucleoside missing) | 2 score 0-7
RNA1{[moe](A)[sp].[moe](T)p.[moe](T)[sp].[moe]([m5C])[sp].[moe](A)[sp].[moe]([m5C])[sp].[moe](T)[sp].[moe](T)[sp].[moe](T)[sp].[moe]([m5C])p.[moe](A)[sp].[moe](T)[sp].[moe](A)[sp].[moe](A)[sp].[moe](T)[sp].[moe](G)[sp].[moe]([m5C])[sp].[moe](T)[sp].[moe](G)}$$$$ (last 3' nucleoside missing) | 3.25 score 0-7
RNA1{[moe](A)[sp].[moe](T)p.[moe](T)[sp].[moe]([m5C])p.[moe](A)[sp].[moe]([m5C])[sp].[moe](T)[sp].[moe](T)[sp].[moe](T)[sp].[moe]([m5C])[sp].[moe](A)[sp].[moe](T)[sp].[moe](A)[sp].[moe](A)[sp].[moe](T)[sp].[moe](G)[sp].[moe]([m5C])[sp].[moe](T)[sp].[moe](G)}$$$$ (last 3' nucleoside missing) | 3.5 score 0-7
RNA1{[moe](A)[sp].[moe](T)p.[moe](T)p.[moe]([m5C])[sp].[moe](A)[sp].[moe]([m5C])[sp].[moe](T)[sp].[moe](T)[sp].[moe](T)[sp].[moe]([m5C])[sp].[moe](A)[sp].[moe](T)[sp].[moe](A)[sp].[moe](A)[sp].[moe](T)[sp].[moe](G)[sp].[moe]([m5C])[sp].[moe](T)[sp].[moe](G)}$$$$ (last 3' nucleoside missing) | 3.25 score 0-7
RNA1{[moe](A)[sp].[moe]([m5C])[sp].[moe](T)[sp].[moe](T)[sp].[moe](T)[sp].[moe]([m5C])[sp].[moe](A)[sp].[moe](T)[sp].[moe](A)[sp].[moe](A)[sp].[moe](T)[sp].[moe](G)[sp].[moe]([m5C])[sp].[moe](T)[sp].[moe](G)[sp].[moe](G)[sp].[moe]([m5C])[sp].[moe](A)}$$$$ (last 3' nucleoside missing) | 0 score 0-7
RNA1{[moe](A)[sp].[moe]([m5C])[sp].[moe](T)[sp].[moe](T)[sp].[moe](T)[sp].[moe]([m5C])[sp].[moe](A)[sp].[moe](T)[sp].[moe](A)[sp].[moe](A)[sp].[moe](T)[sp].[moe](G)[sp].[moe]([m5C])[sp].[moe](T)[sp].[moe](G)[sp].[moe](G)}$$$$ (last 3' nucleoside missing) | 1.12 score 0-7
RNA1{[moe](A)[sp].[moe]([m5C])[sp].[moe](T)[sp].[moe](T)[sp].[moe](T)[sp].[moe]([m5C])[sp].[moe](A)[sp].[moe](T)[sp].[moe](A)[sp].[moe](A)[sp].[moe](T)[sp].[moe](G)[sp].[moe]([m5C])[sp].[moe](T)[sp].[moe](G)}$$$$ (last 3' nucleoside missing) | 3.75 score 0-7
RNA1{[moe](A)[sp].[moe]([m5C])[sp].[moe](T)[sp].[moe](T)[sp].[moe](T)[sp].[moe]([m5C])[sp].[moe](A)[sp].[moe](T)[sp].[moe](A)[sp].[moe](A)[sp].[moe](T)p.[moe](G)p.[moe]([m5C])p.[moe](T)p.[moe](G)[sp].[moe](G)}$$$$ (last 3' nucleoside missing) | 0 score 0-7
RNA1{[moe](A)[sp].[moe]([m5C])[sp].[moe](T)[sp].[moe](T)[sp].[moe](T)[sp].[moe]([m5C])[sp].[moe](A)[sp].[moe](T)[sp].[moe](A)p.[moe](A)p.[moe](T)p.[moe](G)p.[moe]([m5C])[sp].[moe](T)[sp].[moe](G)[sp].[moe](G)}$$$$ (last 3' nucleoside missing) | 0 score 0-7
RNA1{[moe](A)[sp].[moe]([m5C])[sp].[moe](T)[sp].[moe](T)[sp].[moe](T)[sp].[moe]([m5C])[sp].[moe](A)[sp].[moe](T)p.[moe](A)p.[moe](A)p.[moe](T)[sp].[moe](G)[sp].[moe]([m5C])[sp].[moe](T)[sp].[moe](G)[sp].[moe](G)}$$$$ (last 3' nucleoside missing) | 1 score 0-7
RNA1{[moe](A)[sp].[moe]([m5C])[sp].[moe](T)[sp].[moe](T)[sp].[moe](T)[sp].[moe]([m5C])[sp].[moe](A)p.[moe](T)p.[moe](A)p.[moe](A)p.[moe](T)[sp].[moe](G)[sp].[moe]([m5C])[sp].[moe](T)[sp].[moe](G)[sp].[moe](G)}$$$$ (last 3' nucleoside missing) | 0.25 score 0-7
RNA1{[moe](A)[sp].[moe]([m5C])[sp].[moe](T)[sp].[moe](T)[sp].[moe](T)[sp].[moe]([m5C])[sp].[moe](A)p.[moe](T)p.[moe](A)p.[moe](A)p.[moe](T)p.[moe](G)[sp].[moe]([m5C])[sp].[moe](T)[sp].[moe](G)[sp].[moe](G)}$$$$ (last 3' nucleoside missing) | 0 score 0-7
RNA1{[moe](A)[sp].[moe]([m5C])[sp].[moe](T)[sp].[moe](T)[sp].[moe](T)[sp].[moe]([m5C])p.[moe](A)p.[moe](T)p.[moe](A)p.[moe](A)p.[moe](T)p.[moe](G)[sp].[moe]([m5C])[sp].[moe](T)[sp].[moe](G)[sp].[moe](G)}$$$$ (last 3' nucleoside missing) | 0 score 0-7

— the OligoGym collection
